Literature values, collected in patent US7534787B2, “Method of treating diseases and conditions associated with an altered level of amyloid beta peptides and new enolcarboxamide compounds” (Boehringer Ingelheim International GmbH, priority 2004, dated 2009).

Tested on: Aβ42
Conditions: according to table 3 of WO 01/78721

| Structure (SMILES) | Aβ42 lowering activity |
| --- | --- |
| Cc1cc(NC(=O)C2=C(O)c3ccccc3S(=O)(=O)N2C)no1 [isoxicam] | do not lower or even increase the Aβ42 level |
| CN1C(C(=O)Nc2ccccn2)=C(O)c2ccccc2S1(=O)=O [piroxicam] | do not lower or even increase the Aβ42 level |
